What was measured:
Assay type in all cases: cell-based, human
[1] = test system: UVA-irradiated HaCaT cells; assay: LDH release (UVA-induced cell membrane damage); conditions: 125, 250, 500 nM 24 hours, then 15 J/cm^2 UVA, 4 hours
Procedure: Under normal physiological condition, a lactate dehydrogenase (LDH) is presented in the cytoplasm. The cell membranes are damaged or disrupted when the cells are attacked by excessive ROS. Accordingly, the intracellular LDH releases into the culture medium. Therefore, a detection amount of LDH release is an indicator of a cell membrane damaged condition. The HaCaT cells are seeded in a 12-well plate with 1×10^5 cells/well and then maintained at 37° C. in the humidified atmosphere of 5% CO2 until the HaCaT cells are adhered in the next day. […] After incubation, the HaCaT cells are washed with PBS three times and resuspended in fresh phenol red-free DMEM supplemented with 10% FBS. Then, the HaCaT cells are exposed to the UVA (15 J/cm^2) for 4 hours. The culture medium is taken from the well, and then centrifuged at 400×g for 5 minutes by using a high speed centrifuge. After the centrifugation, 50 μL of the supernatant is taken and added into the 96-well microplate, and the 50 μL of a substrate mixture is added in each well to act at room temperature for 20 minutes in the dark. Then, 50 μl. of a stopping solution (1N HCl) is added in each well to stop the reaction, and then the absorbance at 490 nm is measured.

Nrf2 [2] = assay: Western blot of Nrf2 signaling pathway associated proteins (Nrf2, Keap-1, HO-1, NQO-1, γ-GCLC)
Procedure: The effect of the ergothioneine on expressions of Nrf2 protein and downstream proteins of the HaCaT cells is monitored by the Western blot analysis. The detected downstream proteins are heme oxygenase-1 (HO-1) γ-glutamylcysteine ligase catalytic subunit (γ-GCLC) and NAD(P)H: quinone acceptor oxidoreductase 1 (NQO-1). The HaCaT cells are incubated with or without the ergothioneine for 1 hour or 4 hours, wherein the concentration of the ergothioneine is 125 nM, 250 nM and 500 nM, respectively. After incubation, the HaCaT cells are suspended in a lysis buffer to collect the proteins. FIG. 7 illustrates the effect of the ergothioneine on the expressions of the Nrf2 signaling pathway associated proteins of the HaCaT cells.
In addition, we examine the effect of the ergothioneine on the expressions of the Nrf2 and the Nrf2 pathway associated proteins of the HaCaT cells treated with the UVA irradiation. The HaCaT cells are incubated with or without the ergothioneine for 24 hours, wherein the concentration of the ergothioneine is 125 nM, 250 nM and 500 nM, respectively. After incubation, the HaCaT cells are exposed to the UVA (15 J/cm^2), and then cultured for 1 hour or 4 hours. Next, the HaCaT cells are suspended in the lysis buffer to collect the proteins, and the protein expressions are measured by the Western blot analysis. FIG. 8 illustrates the effect of the ergothioneine on the expressions of the Nrf2 signaling pathway associated proteins of the UVA-irradiated HaCaT cells. FIG. 8-(A) represents the Western blot analysis results of total Nrf2 and Keap-1 protein levels, wherein the HaCaT cells are pretreated with the ergothioneine (125-500 nM), and then exposed to the UVA for 1 hour. FIG. 8-(B) represents the Western blot analysis results of the HO-1 the NQO-1 and the γ-GCLC proteins, wherein the HaCaT cells are pretreated with the ergothioneine (125-500 nM), and then exposed to the UVA for 4 hour.

Nrf2 [3] = assay: Nrf2 nuclear translocation (Western blot of cytosolic and nuclear Nrf2, immunofluorescence staining); conditions: for nuclear Nrf2 protein expression / cytosolic Nrf2 protein expression: Western blot
Procedure: This example next investigates the effect of the ergothioneine on the Nrf2 nuclear translocation. The HaCat cells are pretreated with the ergothioneine for 24 hours, and then exposed to 15 J/cm^2 UVA for 1 hour. The protein expressions of a cytosolic Nrf2 and a nuclear Nrf2 are detected by the Western blot analysis, and a nuclear import of Nrf2 of the HaCaT cell is monitored by an immunofluorescence staining.
FIG. 9 illustrates the effect of the ergothioneine on the protein expressions of the cytosolic Nrf2 and the nuclear Nrf2 of the UVA-irradiated HaCaT cells. FIG. 9-(A) represents the Western blot analysis result. FIG. 9-(B) is the fluorescent photomicrograph of the immunofluorescence staining (200× magnifications). […] In FIG. 9-(B), the nucleus is labelled with 4′,6-diamidino-2-phenylindole (DAPI), and the Nrf2 is labelled with green fluorescence to measure the expression and a localization of the Nrf2.

Nrf2 [4] = assay: Western blot in Nrf2 knockdown HaCaT cells (siRNA transfection); conditions: Nrf2 siRNA transfected cells, 500 nM ergothioneine 24 hours
Excerpt: The Nrf2 is an important transcription factor, the downstream antioxidant enzymes are regulated by the Nrf2 transcription gene. To examine protective effects of the ergothioneine on the HaCaT cells indeed through the Nrf2 activation, we developed an Nrf2 gene knockdown model in the HaCaT cells by a siRNA transfection in this example. Then, the expression of the downstream antioxidant gene is observed to investigate whether the protective properties of the ergothioneine will be affected.
The siRNA transfection includes steps as follows. The HaCaT cells are seeded in a 6-well plate with 4×10^5 cells/well and then maintained at 37° C. in the humidified atmosphere of 5% CO2 untill the time of the transfection. The day after reaching 40-60% confluence, the culture medium is replaced with 1 mL of FBS-free and antibiotic-free culture medium in each well, and the HaCaT cells are transfected with a siNrf2 or a control siRNA by using Lipofectamine 2000 (Invitrogen, U.S.A.) for 4-6 hours. After the incubation for 4-6 hours, the HaCaT cells are washed with the culture medium supplemented with 10% FBS 2-3 times, and then cultured in the culture medium supplemented with 10% FBS for 12-16 hours.
After the siRNA transfection, the HaCaT cells are treated with 500 nM ergothioneine for 24 hours. After the ergothioneine treatment, the HaCaT cells are subjected to analyses of the protein express on of the Nrf2 in 1 hour post-treatment and the protein expressions of HO-1 γ-GCLC and NQO-1 in 4 hours post-treatment by the Western blot analysis. FIG. 13-(A) illustrates the effect of the ergothioneine on protein expression of the Nrf2 in Nrf2 knockdown HaCaT cells by using the siRNA transfection.

[5] = 125-500 nM 24 hours pretreatment, UVA 15 J/cm^2, 4 hours
[6] = ergothioneine alone, vs control

Question: What does the source list for `C[N+](C)(C)[C@@H](Cc1c[nH]c(=S)[nH]1)C(=O)[O-]` [ergothioneine, 2-mercapto histidine trimethylbetain]?
Answer: LDH release [1]: inhibits the LDH release in a dose-dependent manner; Nrf2 expression (Nrf2/Keap-1 ratio) (Nrf2 [2]; 125-500 nM 24 hours pretreatment, UVA 15 J/cm^2, 1 hour): dramatically increases the Nrf2 expression; expression of HO-1 protein (Nrf2 [2]; [5]): also increased; expression of NQO-1 protein (Nrf2 [2]; [5]): also increased; expression of γ-GCLC protein (Nrf2 [2]; [5]): also increased; total Nrf2 protein level (Nrf2 [2]; 125-500 nM for 1 hour, no UVA, especially with 500 nM): increases the total Nrf2 protein level; expression of HO-1 protein (Nrf2 [2]; 125-500 nM for 4 hours, no UVA): also increased; expression of NQO-1 protein (Nrf2 [2]; 125-500 nM for 4 hours, no UVA): also increased; expression of γ-GCLC protein (Nrf2 [2]; 125-500 nM for 4 hours, no UVA): also increased; nuclear Nrf2 protein expression (Nrf2 [3]; ergothioneine 24 hours prior to 15 J/cm^2 UVA, 1 hour): significantly increased; fluorescence intensity of the Nrf2 (Nrf2 [3]; ergothioneine alone, immunofluorescence staining): slightly increased; cytosolic Nrf2 protein expression (Nrf2 [3]; [6]): significantly decreased; nuclear Nrf2 protein expression (Nrf2 [3]; [6]): slightly increased; fluorescence intensity of the nuclear Nrf2 (Nrf2 [3]; ergothioneine prior to UVA irradiation, immunofluorescence staining): pronounced fluorescence intensity of the nuclear Nrf2; cytosolic Nrf2 protein expression (Nrf2 [3]; ergothioneine prior to UVA irradiation, vs control): significantly decreased; expression of HO-1 (Nrf2 [4]): not shown the increased expression; expression of NQO-1 (Nrf2 [4]): not shown the increased expression; expression of γ-GCLC (Nrf2 [4]): not shown the increased expression
